Reference: patent publication US20160206688A1, “METHODS FOR TREATING BACTEREMIA AND OSTEOMYELITIS USING ORITAVANCIN” (THE MEDICINES COMPANY, priority 2013, published 2016)
Converted amounts (≈) assume the structure as drawn. Like-named read-outs stand apart in the source and are kept apart here.

Assays:
S. aureus = assay: Broth microdilution MIC, European bacteraemia isolates 2010-2012; type: cell-based
Description: (§1) A total of 2,904 clinical strains responsible for documented bacteremia among unique hospitalized patients in 38 hospitals in 11 European Union countries. Israel, Russia, Turkey and Ukraine were included in this study (2010-2012). Isolates were submitted to a central monitoring laboratory (JMI Laboratories, North Liberty. Iowa. USA), following previously established protocols. Bacterial species identification was performed by using an automated system (Vitek®2; bioMèrieux, Hazelwood, Mo., USA) or conventional biochemical algorithms, as required.
(§2) Isolates were tested for susceptibility by broth microdilution methods following the Clinical and Laboratory Standards Institute (CLSI; M07-A9, 2012) document. Susceptibility testing was performed in cation-adjusted Mueller-Hinton broth (CA-MHB) using dry-form panels manufactured by Thermo Fisher Scientific, formerly TREK Diagnostics Systems/Sensititre (Cleveland. Ohio, USA). These panels provide results equivalent to the CLSI-approved broth microdilution method supplemented with 0.002% polysorbate-80.
(§3) Quality assurance was performed by concurrent testing of CLSI-recommended (M100-S23, 2013) strains: E. faecalis ATCC 29212 and S. aureus ATCC 29213. Interpretation of comparator MIC results was in accordance with published CLSI (M100-S23) and European Committee on Antimicrobial Susceptibility Testing (EUCAST, 2013) criteria.

[1] = Tolerability and laboratory findings in compassionate use subject; type: in vivo, human
Description: In response to a compassionate use request, oritavancin was administered to a subject having bacteremia.
The demographics of the subject included the following: […]; […]; […]; weight—190 lb; height—70 inches. The subject's medical history included the following: CAD s/p CABG 8/08 (SVG to OM1, SVG to PDA); severe AS s/p bioprosthetic AVR 8/08; lumbar discectomy and fusion February 2011, hardware removed Jan. 11, 2013; PVD S/p bilateral CEA 2010; CKD s/p renal artery stenting December 2011, Baseline Cr approx 3.0 s; HTN; CHF; HLD; mild pulmonary fibrosis; BPH; GERD; arthritis.
Treatment as of Feb. 8, 2013: oritavancin (1200 mg IV, Q2D×3 times, then QW×5 times).

[2] = system: staphylococcal clinical isolates; assay: Broth microdilution MIC, European bacteraemia isolates 2010-2012; type: cell-based, staphylococci
Description: as §1, §2, §3

E. faecium = assay: as above; type: cell-based, Enterococcus faecium
Description: as §1, §2, §3

[3] = Staphylococcus aureus, Table 2, S. aureus Methicillin-resistant (1,708)
[4] = collection of staphylococcal clinical isolates, regardless of the methicillin susceptibility pattern
[5] = E. faecium (315), at ≦0.008 mg/L
[6] = E. faecium, VanA-phenotype (53), at ≦0.008 mg/L
[7] = E. faecium, Vancomycin-susceptible (257), at ≦0.008 mg/L
[8] = Enterococcus faecium, Table 1, E. faecium (315)
[9] = Enterococcus faecium, Table 1, E. faecium, VanA-phenotype (53)
[10] = Enterococcus faecium, Table 1, E. faecium, Vancomycin-susceptible (257)
[11] = Enterococcus faecium, Table 2, E. faecium Vancomycin-resistant (VanA-phenotype) (153)
[12] = Enterococcus faecium, Table 2, E. faecium Vancomycin-susceptible (257)

CN[C@H](CC(C)C)C(=O)N[C@H]1C(=O)N[C@@H](CC(N)=O)C(=O)N[C@H]2C(=O)N[C@H]3C(=O)N[C@H](C(=O)N[C@H](C(=O)O)c4cc(O)cc(O)c4-c4cc3ccc4O)[C@H](O[C@H]3C[C@](C)(N)[C@@H](O)[C@H](C)O3)c3ccc(c(Cl)c3)Oc3cc2cc(c3O[C@@H]2O[C@H](CO)[C@@H](O)[C@H](O)[C@H]2O[C@H]2C[C@](C)(NCc3ccc(-c4ccc(Cl)cc4)cc3)[C@@H](O)[C@H](C)O2)Oc2ccc(cc2Cl)[C@H]1O [Oritavancin, N-(4-(4-chlorophenyl)benzyl)A82846B]
inhibition at 0.12 µg/mL (S. aureus; Staphylococcus aureus, read-out: cumulative % inhibited at MIC, S. aureus, Methicillin-resistant (372), at 0.12 mg/L): 98.4%
inhibition at 0.25 µg/mL (S. aureus; Staphylococcus aureus, read-out: cumulative % inhibited at MIC, S. aureus, Methicillin-resistant (372), at 0.25 mg/L): 100%
MIC50 (S. aureus; [3]): 0.03 mg/L (≈ 16.7 nM)
MIC90 (S. aureus; [3]): 0.06 mg/L (≈ 33.5 nM)
MIC Range (S. aureus; Table 2, S. aureus Methicillin-resistant (1,708)): ≦0.008-0.25 mg/L
creatinine ([1]; last post-dose, reported Feb. 11, 2013, pre-treatment levels 2.8 to 3): 3.1
tolerability ([1]; reported Feb. 20, 2013): tolerating oritavancin well without the adverse events from their previous antibiotics
creatinine ([1]; reported Feb. 20, 2013, went down from 3.1): 1.6
concentration inhibiting all strains ([2]; all staphylococci, including resistant subsets): ≤ 0.25 mg/L
MIC50 [2, 4]: 0.03 mg/L (≈ 16.7 nM)
MICE [2, 4]: 0.06 mg/L
effect of methicillin-resistance phenotype on in vitro activity ([2]; staphylococci): not affected
Number inhibited at MIC (E. faecium; E. faecium (315), at 0.015 mg/L): 25
Number inhibited at MIC (E. faecium; E. faecium (315), at 0.03 mg/L): 12
Number inhibited at MIC (E. faecium; E. faecium (315), at 0.06 mg/L): 6
Number inhibited at MIC (E. faecium; E. faecium (315), at 0.12 mg/L): 3
Number inhibited at MIC (E. faecium; [5]): 269
cumulative % inhibited at MIC (E. faecium; [5]): 85.4%
Number inhibited at MIC (E. faecium; E. faecium, VanA-phenotype (53), at 0.015 mg/L): 19
Number inhibited at MIC (E. faecium; E. faecium, VanA-phenotype (53), at 0.03 mg/L): 12
Number inhibited at MIC (E. faecium; E. faecium, VanA-phenotype (53), at 0.06 mg/L): 6
Number inhibited at MIC (E. faecium; E. faecium, VanA-phenotype (53), at 0.12 mg/L): 3
Number inhibited at MIC (E. faecium; [6]): 13
cumulative % inhibited at MIC (E. faecium; [6]): 24.5%
Number inhibited at MIC (E. faecium; E. faecium, Vancomycin-susceptible (257), at 0.015 mg/L): 6
Number inhibited at MIC (E. faecium; [7]): 251
cumulative % inhibited at MIC (E. faecium; [7]): 97.7%
MIC50 (E. faecium; [8]): ≤ 0.008 mg/L
MIC90 (E. faecium; [8]): 0.015 mg/L (≈ 8.37 nM)
MIC50 (E. faecium; [9]): 0.015 mg/L (≈ 8.37 nM)
MIC90 (E. faecium; [9]): 0.06 mg/L (≈ 33.5 nM)
MIC50 (E. faecium; [10]): ≤ 0.008 mg/L
MIC90 (E. faecium; [10]): ≤ 0.008 mg/L
MIC50 (E. faecium; [11]): 0.015 mg/L (≈ 8.37 nM)
MIC90 (E. faecium; [11]): 0.06 mg/L (≈ 33.5 nM)
MIC50 (E. faecium; [12]): ≤ 0.0081 mg/L
MIC90 (E. faecium; [12]): ≤ 0.008 mg/L
MIC (E. faecium; Enterococcus faecium, read-out: MIC values): ≤ 0.008 mg/L
inhibition at 0.015 µg/mL (E. faecium; Enterococcus faecium, read-out: cumulative % inhibited at MIC, E. faecium (315), at 0.015 mg/L): 93.3%
inhibition at 0.03 µg/mL (E. faecium; Enterococcus faecium, read-out: cumulative % inhibited at MIC, E. faecium (315), at 0.03 mg/L): 97.1%
inhibition at 0.06 µg/mL (E. faecium; Enterococcus faecium, read-out: cumulative % inhibited at MIC, E. faecium (315), at 0.06 mg/L): 99.1%
inhibition at 0.12 µg/mL (E. faecium; Enterococcus faecium, read-out: cumulative % inhibited at MIC, E. faecium (315), at 0.12 mg/L): 100%
inhibition at 0.015 µg/mL (E. faecium; Enterococcus faecium, read-out: cumulative % inhibited at MIC, E. faecium, VanA-phenotype (53), at 0.015 mg/L): 60.4%
inhibition at 0.03 µg/mL (E. faecium; Enterococcus faecium, read-out: cumulative % inhibited at MIC, E. faecium, VanA-phenotype (53), at 0.03 mg/L): 83%
inhibition at 0.06 µg/mL (E. faecium; Enterococcus faecium, read-out: cumulative % inhibited at MIC, E. faecium, VanA-phenotype (53), at 0.06 mg/L): 94.3%
inhibition at 0.12 µg/mL (E. faecium; Enterococcus faecium, read-out: cumulative % inhibited at MIC, E. faecium, VanA-phenotype (53), at 0.12 mg/L): 100%
inhibition at 0.015 µg/mL (E. faecium; Enterococcus faecium, read-out: cumulative % inhibited at MIC, E. faecium, Vancomycin-susceptible (257), at 0.015 mg/L): 100%
MIC Range (E. faecium; Table 2, E. faecium Vancomycin-resistant (VanA-phenotype) (153)): ≦0.008-0.12 mg/L
MIC Range (E. faecium; Table 2, E. faecium Vancomycin-susceptible (257)): ≦0.008-0.015 mg/L
MIC50 and MIC90 lower than daptomycin and linezolid (E. faecium; VanA-phenotype E. faecium): 32- to 64 fold
concentration inhibiting all strains (E. faecium; VanA-phenotype E. faecium strains): ≤ 0.12 mg/L
concentration inhibiting all strains (E. faecium; all E. faecium, including resistant subsets): ≤ 0.12 mg/L
activity relative to wild-type vancomycin-susceptible population (E. faecium; vancomycin-resistant (VanA-type) E. faecium strains): at least two-fold less active
